US20140107100A1, “Benzoxazepines as Inhibitors of PI3K/mTOR and Methods of Their Use and Manufacture” (EXELIXIS, INC., priority 2010, published 2014)

What follows are compounds tested against mTOR/GbL/Raptor (mTORC1) (Homo sapiens, UniProt P42345) (assay: mTOR/GbL/Raptor (mTORC1) ELISA assay, phosphorylation of 4E-BP1). Conditions: 0.2 nM mTORC1, 40 uM ATP, 50 nM NHis-tagged 4E-BP1, 120 minutes; read-out: IC50 in this assay (mTORC1 ELISA).
Type: biochemical
In short: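 Phospho-4E-BP1 was quantified by luminescent ELISA (anti-phospho-4E-BP1 IgG, HRP-tagged secondary) after capture of the His-tagged substrate on Ni-chelate plates.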

IC50	SMILES
≤ 100 nM	COCCc1c(C)nc(CN2CCCC2)nc1N1CCOc2c(C)cc(-c3cnc4sc(N)nc4c3)cc2C1 [Compound 127, 6-(9-methyl-4-{6-methyl-5-[2-(methyloxy)ethyl]-2-(pyrrolidin-1-ylmethyl)pyrimidin-4-yl}-2,3,4,5-tetrahydro-1,4-benzoxazepin-7-yl)[1,3]thiazolo[5,4-b]pyridin-2-amine]
≤ 100 nM	Cc1cc(-c2cnc3sc(N)nc3c2)cc2c1OCCN(c1nc(C(F)(F)F)nc(C)c1C(C)C)C2 [Compound 128, 6-{9-methyl-4-[6-methyl-5-(1-methylethyl)-2-(trifluoromethyl)pyrimidin-4-yl]-2,3,4,5-tetrahydro-1,4-benzoxazepin-7-yl}[1,3]thiazolo[5,4-b]pyridin-2-amine]
≤ 100 nM	COCCc1c(C)ncnc1N1CCOc2c(C)cc(-c3cnc4sc(N)nc4c3)cc2C1 [Compound 129, 6-(9-methyl-4-{6-methyl-5-[2-(methyloxy)ethyl]pyrimidin-4-yl}-2,3,4,5-tetrahydrio-1,4-benzoxazepin-7-yl)[1,3]thiazolo[5,4-b]pyridin-2-amine]
≤ 100 nM	C=C(C)c1c(C)nc(N)nc1N1CCOc2c(C)cc(-c3cnc4sc(N)nc4c3)cc2C1 [Compound 130, 6-{4-[2-amino-6-methyl-5-(1-methylethenyl)pyrimidin-4-yl]-9-methyl-2,3,4,5-tetrahydro-1,4-benzoxazepin-7-yl}[1,3]thiazolo[5,4-b]pyridin-2-amine]
100 to 500 nM	Cc1cc(-c2cnc3sc(N)nc3c2)cc2c1OCCN(c1ncnc(Cl)c1C(C)(C)O)C2 [Compound 131, 2-{4-[7-(2-amino[1,3]thiazolo[5,4-b]pyridin-6-yl)-9-methyl-2,3-dihydro-1,4-benzoxazepin-4(5H)-yl]-6-chloropyrimidin-5-yl}propan-2-ol]
≤ 100 nM	COCCc1c(C)nc(C)nc1N1CCOc2c(C)cc(-c3cnc4sc(N)nc4c3)cc2C1 [Compound 132, 6-(4-{2,6-dimethyl-5-[2-(methyloxy)ethyl]pyrimidin-4-yl}-9-methyl-2,3,4,5-tetrahydro-1,4-benzoxazepin-7-yl)[1,3]thiazolo[5,4-b]pyridin-2-amine]
≤ 100 nM	Cc1cc(-c2cnc3sc(N)nc3c2)cc2c1OCCN(c1nc(C3CNC3)nc(C)c1C(C)C)C2 [Compound 133, 6-{4-[2-azetidin-3-yl-6-methyl-5-(1-methylethyl)pyrimidin-4-yl]-9-methyl-2,3,4,5-tetrahydro-1,4-benzoxazepin-7-yl}[1,3]thiazolo[5,4-b]pyridin-2-amine]
≤ 100 nM	Cc1cc(-c2cnc3sc(N)nc3c2)cc2c1OCCN(c1nc(CN)nc(C)c1C(C)C)C2 [Compound 134, 6-{4-[2-(aminomethyl)-6-methyl-5-(1-methylethyl)pyrimidin-4-yl]-9-methyl-2,3,4,5-tetrahydro-1,4-benzoxazepin-7-yl}[1,3]thiazolo[5,4-b]pyridin-2-amine]
≤ 100 nM	COCCc1cnc(C)nc1N1CCOc2c(C)cc(-c3cnc4sc(N)nc4c3)cc2C1 [Compound 135, 6-(9-methyl-4-{2-methyl-5-[2-(methyloxy)ethyl]pyrimidin-4-yl}-2,3,4,5-tetrahydro-1,4-benzoxazepin-7-yl)[1,3]thiazolo[5,4-b]pyridin-2-amine]
≤ 100 nM	CNCc1nc(C)c(C(C)C)c(N2CCOc3c(C)cc(-c4cnc5sc(N)nc5c4)cc3C2)n1 [Compound 136, 6-(9-methyl-4-{6-methyl-2-[(methylamino)methyl]-5-(1-methylethyl)pyrimidin-4-yl}-2,3,4,5-tetrahydro-1,4-benzoxazepin-7-yl)[1,3]thiazolo[5,4-b]pyridin-2-amine]
≤ 100 nM	Cc1cc(-c2nnc(N)s2)cc2c1OCCN(c1nc(N)nc(C)c1C(C)C)C2 [Compound 137, 4-[7-(5-amino-1,3,4-thiadiazol-2-yl)-9-methyl-2,3-dihydro-1,4-benzoxazepin-4(5H)-yl]-6-methyl-5-(1-methylethyl)pyrimidin-2-amine]
≤ 100 nM	C#CCc1c(C)nc(C)nc1N1CCOc2c(C)cc(-c3cnc4sc(N)nc4c3)cc2C1 [Compound 138, 6-[4-(2,6-dimethyl-5-prop-2-yn-1-ylpyrimidin-4-yl)-9-methyl-2,3,4,5-tetrahydro-1,4-benzoxazepin-7-yl][1,3]thiazolo[5,4-b]pyridin-2-amine]
≤ 100 nM	Cc1cc(-c2cnc3sc(N)nc3c2)cc2c1OCCN(c1nc(N3CC(O)C3)nc(C)c1C(C)C)C2 [Compound 139, 1-{4-[7-(2-amino[1,3]thiazolo[5,4-b]pyridin-6-yl)-9-methyl-2,3-dihydro-1,4-benzoxazepin-4(5H)-yl]-6-methyl-5-(1-methylethyl)pyrimidin-2-yl}azetidin-3-ol]
100 to 500 nM	COc1cc(-c2cnc3sc(N)nc3c2)cc2c1OCCN(c1nc(N)nc(C)c1C(C)C)C2 [Compound 140, 6-{4-[2-amino-6-methyl-5-(1-methylethyl)pyrimidin-4-yl]-9-(methyloxy)-2,3,4,5-tetrahydro-1,4-benzoxazepin-7-yl}[1,3]thiazolo[5,4-b]pyridin-2-amine]
≤ 100 nM	CC#CCc1c(C)nc(C)nc1N1CCOc2c(C)cc(-c3cnc4sc(N)nc4c3)cc2C1 [Compound 141, 6-[4-(5-but-2-yn-1-yl-2,6-dimethylpyrimidin-4-yl)-9-methyl-2,3,4,5-tetrahydro-1,4-benzoxazepin-7-yl][1,3]thiazolo[5,4-b]pyridin-2-amine]
≤ 100 nM	COC(C)c1c(C)nc(C)nc1N1CCOc2c(C)cc(-c3cnc4sc(N)nc4c3)cc2C1 (stereo not drawn) [Compound 142, 6-(4-{2,6-dimethyl-5-[1-(methyloxy)ethyl]pyrimidin-4-yl}-9-methyl-2,3,4,5-tetrahydro-1,4-benzoxazepin-7-yl)[1,3]thiazolo[5,4-b]pyridin-2-amine]
≤ 100 nM	COCc1c(C)nc(C)nc1N1CCOc2c(C)cc(-c3cnc4sc(N)nc4c3)cc2C1 [Compound 143, 6-(4-{2,6-dimethyl-5-[(methyloxy)methyl]pyrimidin-4-yl}-9-methyl-2,3,4,5-tetrahydro-1,4-benzoxazepin-7-yl)[1,3]thiazolo[5,4-b]pyridin-2-amine]
≤ 100 nM	Cc1cc(-c2cnc3sc(N)nc3c2)cc2c1OCCN(c1nc(C(F)F)nc(C)c1C(C)C)C2 [Compound 144, 6-{4-[2-(difluoromethyl)-6-methyl-5-(1-methylethyl)pyrimidin-4-yl]-9-methyl-2,3,4,5-tetrahydro-1,4-benzoxazepin-7-yl}[1,3]thiazolo[5,4-b]pyridin-2-amine]
≤ 100 nM	C#Cc1c(C)nc(N)nc1N1CCOc2c(C)cc(-c3cnc4sc(N)nc4c3)cc2C1 [Compound 145, 6-[4-(2-amino-5-ethynyl-6-methylpyrimidin-4-yl)-9-methyl-2,3,4,5-tetrahydro-1,4-benzoxazepin-7-yl][1,3]thiazolo[5,4-b]pyridin-2-amine]
≤ 100 nM	Cc1cc(-c2cnc3sc(N)nc3c2)cc2c1OCCN(c1nc(C3CCCN3)nc(C)c1C(C)C)C2 (stereo not drawn) [Compound 146, 6-{9-methyl-4-[6-methyl-5-(1-methylethyl)-2-pyrrolidin-2-ylpyrimidin-4-yl]-2,3,4,5-tetrahydro-1,4-benzoxazepin-7-yl}[1,3]thiazolo[5,4-b]pyridin-2-amine]
≤ 100 nM	Cc1cc(-c2cnc3sc(N)nc3c2)cc2c1OCCN(c1nc([C@@H]3CC(F)(F)CN3)nc(C)c1C(C)C)C2 [Compound 147, 6-(4-{2-[(2S)-4,4-difluoropyrrolidin-2-yl]-6-methyl-5-(1-methylethyl)pyrimidin-4-yl}-9-methyl-2,3,4,5-tetrahydro-1,4-benzoxazepin-7-yl)[1,3]thiazolo[5,4-b]pyridin-2-amine]
100 to 500 nM	CNc1ncnc(N2CCOc3c(C)cc(-c4cnc5sc(N)nc5c4)cc3C2)c1[N+](=O)[O-] [Compound 148, 6-{9-methyl-4-[6-(methylamino)-5-nitropyrimidin-4-yl]-2,3,4,5-tetrahydro-1,4-benzoxazepin-7-yl}[1,3]thiazolo[5,4-b]pyridin-2-amine]
≤ 100 nM	Cc1cc(-c2cnc3sc(N)nc3c2)cc2c1OCCN(c1nc(C3CCCN3C)nc(C)c1C(C)C)C2 (stereo not drawn) [Compound 149, 6-{9-methyl-4-[6-methyl-5-(1-methylethyl)-2-(1-methylpyrrolidin-2-yl)pyrimidin-4-yl]-2,3,4,5-tetrahydro-1,4-benzoxazepin-7-yl}[1,3]thiazolo[5,4-b]pyridin-2-amine]
≤ 100 nM	Cc1cc(-c2cnc3sc(N)nc3c2)cc2c1OCCN(c1nc(C3CC3)nc(C)c1C(C)C)C2 [Compound 150, 6-{4-[2-cyclopropyl-6-methyl-5-(1-methylethyl)pyrimidin-4-yl]-9-methyl-2,3,4,5-tetrahydro-1,4-benzoxazepin-7-yl}[1,3]thiazolo[5,4-b]pyridin-2-amine]
≤ 100 nM	Cc1cc(-c2cnc3sc(N)nc3c2)cc2c1OCCN(c1nc([C@@H]3C[C@@H](F)CN3)nc(C)c1C(C)C)C2 [Compound 151, 6-(4-{2-[(2S,4R)-4-fluoropyrrolidin-2-yl]-6-methyl-5-(1-methylethyl)pyrimidin-4-yl}-9-methyl-2,3,4,5-tetrahydro-1,4-benzoazepin-7-yl)[1,3]thiazolo[5,4-b]pyridin-2-amine]
≤ 100 nM	COc1nc(C)c(C(C)C)c(N2CCOc3c(C)cc(-c4cnc5sc(N)nc5c4)cc3C2)n1 [Compound 152, 6-{9-methyl-4-[6-methyl-5-(1-methylethyl)-2-(methyloxy)pyrimidin-4-yl]-2,3,4,5-tetrahydro-1,4-benzoxazepin-7-yl}[1,3]thiazolo[5,4-b]pyridin-2-amine]
≤ 100 nM	COCC(C)c1c(C)nc(C)nc1N1CCOc2c(C)cc(-c3cnc4sc(N)nc4c3)cc2C1 (stereo not drawn) [Compound 153, 6-(4-{2,6-dimethyl-5-[1-methyl-2-(methyloxy)ethyl]pyrimidin-4-yl}-9-methyl-2,3,4,5-tetrahydro-1,4-benzoxazepin-7-yl)[1,3]thiazolo[5,4-b]pyridin-2-amine]
